Experimental data taken from publication PMC10686989, “Distinct activation mechanisms of β-arrestin-1 revealed by ^19F NMR spectroscopy” (Nature Communications, 2023).

Columns and labels:
βarr1 = target: T1, βarr1 (Homo sapiens, UniProt P49407, C125S/C140L/C150V/C242V/C251V/C269S/C59V/D390C); experiment: 1D 19F NMR of site-specifically 19F (wPSP-6F)-labeled βarr1; type: biochemical; conditions: for Linewidth: 298 K, pH 8.0
T1 construct: we started from a full-length functional cysteine-less βarr1 construct[20]; 6xHis-tag with SSG linker and thrombin cleavage site (N, cleaved yes); made in house; host or cells: E. coli BL21(DE3)
Text: (§1) The cysteine-less mutant (C59V/C125S/C140L/C150V/C242V/C251V/C269S) of the long splice variant of human βarr1 was used for introduction of single site cysteine mutation for ^19F labeling. The sequence was codon-optimized for expression in Escherichia coli and cloned into a pET-28a(+) vector (Novagen), with an N-terminal 6xHis-tag, followed by an SSG linker and a thrombin cleavage site. All mutants, including the 1–382 (βarr1-ΔCT) and 1–395 truncation constructs, were generated using site-directed mutagenesis kits (Thermo Fisher). Primer sequences for generating the mutants are listed in Supplementary Table 4.
Each single-cysteine mutant of βarr1 was diluted to a concentration of 50 μM to be labeled using the sulfoxide-based ^19F probe wPSP-6F[21],[44]. The wPSP-6F stock dissolved in buffer E was added into the protein sample at 1.5-fold molar ratio excess and incubated at 4 °C for 1 h, followed by quenching with twofold molar ratio of dithiothreitol. The sample was then fully exchanged using buffer E to remove excess of small molecules, and subjected to a second round of SEC purification. The purified proteins were concentrated to 100 μM, flash-frozen in liquid nitrogen and stored at −80 °C until use. The purities of all samples were verified by SDS-PAGE.
The ^19F-labeled βarr1 was diluted to 50 μM using buffer E before incubation with peptides or PIP2. The V2Rpp, β2AR-GRK2pp/GRK6pp or PIP2 were added at 1.2-fold, 3-fold, and 1.5-fold molar ratio excess to the protein, respectively. For the membrane-bound sample, the reconstituted nanodiscs were added at twofold molar ratio of βarr1. All complexes were incubated at 25 °C for 1 h, and the freshly prepared samples were immediately subjected to ^19F NMR experiments.
NMR samples were prepared in buffer E to a final volume of 140 μL, supplemented with 1 mM DTT, 10% D2O for field lock, and 1 μM sodium trifluoroacetate (STFA) as the internal chemical shift reference. All samples were sterile-filtered and loaded into sterile 3 mm NMR microtubes to prevent microbial contamination. Final protein concentrations vary for different constructs, depending on their expression levels and stabilities, but all in the range of 20–50 μM.
All ^19F NMR spectra were recorded at 298 K using a Bruker AVANCE III HD 800 MHz spectrometer equipped with a ^1H-^19F/^13C/^15N TCI triple resonance cryogenic probe. All data were acquired and processed using the Bruker Topspin 4.2.0 software. For all 1D ^19F NMR experiments, the traditional one-pulse sequence was used. The carrier frequency was set to −68.0 ppm and the spectra were recorded with 4k points and a spectral width of 15,000 Hz. Because accurate calibration of the 90° excitation pulse length for individual samples is not practical due to the low protein concentrations, we used the 90° pulse length calibrated from a standard sample (0.05% Trifluoro-toluene in CDCl3) for all βarr1 samples. […] Therefore, all the ^19F experiments were conducted with a 100 ms relaxation delay, and acquired using 100,000–200,000 scans depending on the sample condition, yielding a signal-to-noise (S/N) ratio of approximately 50. SDS-PAGE were run for all samples before and after NMR experiments to ensure that no protein degradation occurs during the experiments.
All NMR data were analyzed using the MestraNova 12.0.0 software (https://mnova.pl). The spectra were baseline-corrected by the Whittaker Smoother method and applied with a 30 Hz exponential windows function. The ^19F chemical shifts were referenced to STFA at −75.450 ppm. All datasets were processed using the same variables to facilitate comparison. Spectral deconvolutions were performed assuming generalized Lorentzian line shapes. To distinguish overlapping resonances, a LB value of 3 Hz was initially applied to ensure the highest resolution and determine the exact chemical shift values. The spectra were subsequently fitted iteratively using an LB value of 30 Hz. […]

βarr1-1-395 = experiment: 1D 19F NMR of distal CT-deleted construct; type: biochemical, human; conditions: H295C site; PIP2
Text: as §1
The ^19F-labeled βarr1 was diluted to 50 μM using buffer E before incubation with peptides or PIP2. The V2Rpp, β2AR-GRK2pp/GRK6pp or PIP2 were added at 1.2-fold, 3-fold, and 1.5-fold molar ratio excess to the protein, respectively. […]
All ^19F NMR spectra were recorded at 298 K using a Bruker AVANCE III HD 800 MHz spectrometer equipped with a ^1H-^19F/^13C/^15N TCI triple resonance cryogenic probe. […] The carrier frequency was set to −68.0 ppm and the spectra were recorded with 4k points and a spectral width of 15,000 Hz. […]
All NMR data were analyzed using the MestraNova 12.0.0 software (https://mnova.pl). […] Peak intensities, integrated peak area and linewidths were determined based on the fitted results.

T1 sequence (P49407 whole entry C59V/C125S/C140L/C150V/C242V/C251V/C269S/D390C): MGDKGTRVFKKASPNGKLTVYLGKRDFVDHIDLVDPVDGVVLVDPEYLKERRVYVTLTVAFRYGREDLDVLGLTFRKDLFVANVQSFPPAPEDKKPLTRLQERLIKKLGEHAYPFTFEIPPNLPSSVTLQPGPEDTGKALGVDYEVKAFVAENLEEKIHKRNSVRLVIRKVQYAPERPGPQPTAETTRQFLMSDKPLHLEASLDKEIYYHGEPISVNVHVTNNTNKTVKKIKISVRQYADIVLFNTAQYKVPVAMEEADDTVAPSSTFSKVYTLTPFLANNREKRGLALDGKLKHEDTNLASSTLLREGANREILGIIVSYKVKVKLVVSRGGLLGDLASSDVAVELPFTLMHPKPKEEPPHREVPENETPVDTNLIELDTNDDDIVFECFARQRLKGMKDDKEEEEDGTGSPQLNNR

CCCCCCCC(=O)OC[C@H](COP(=O)(O)O[C@@H]1[C@H](O)[C@H](O)[C@@H](OP(=O)(O)O)[C@H](OP(=O)(O)O)[C@H]1O)OC(=O)CCCCCCC [PIP2, diC8-PI(4,5)P2]
Linewidth (βarr1; 1T36 site, ligand-bound state (V2Rpp 1.2-fold, PIP2 1.5-fold), basal 107): 102 Hz
Linewidth increase upon PIP2 binding (βarr1; C242 site): ~ 50%
Linewidth (βarr1; C242 site, PIP2 1.5-fold, basal 80): 120 Hz
Linewidth (βarr1; C269 site, PIP2 1.5-fold, basal 58): 56 Hz
Linewidth increase upon PIP2 binding (βarr1; D240C site): ~75%
Linewidth (βarr1; D240 site, PIP2 1.5-fold, basal 75): 133 Hz
Linewidth of the S2 resonance (βarr1; D390C site, released conformation, V2Rpp 1.2-fold or PIP2 1.5-fold): > 200 Hz
CT displacement/release (βarr1; D390C site, V2Rpp 1.2-fold, PIP2 1.5-fold): very slight increase of the active S2 peak at the D390C site
Linewidth (βarr1; D390 site, ligand-bound state (V2Rpp 1.2-fold, PIP2 1.5-fold), basal 87): 92 Hz
Linewidth increase upon PIP2 binding (βarr1; E206C site): < 10%
Spectral change at E206C (βarr1; E206C site, PIP2 alone): no obvious changes at this site
Linewidth (βarr1; E206 site, ligand-bound state (V2Rpp 1.2-fold, PIP2 1.5-fold), basal 120): 129 Hz
Linewidth increase upon PIP2 binding (βarr1; E283C site): < 10%
Linewidth (βarr1; E283 site, PIP2 1.5-fold, basal 99): 106 Hz
Linewidth increase upon PIP2 binding (βarr1; E313C site): ~ 50%
Linewidth (βarr1; E313 site, ligand-bound state (V2Rpp 1.2-fold, PIP2 1.5-fold), basal 88): 136 Hz
Linewidth (βarr1; E404 site, ligand-bound state (V2Rpp 1.2-fold, PIP2 1.5-fold), basal 51): 57 Hz
Linewidth (βarr1; F244 site, ligand-bound state (V2Rpp 1.2-fold, PIP2 1.5-fold), basal 123): 200 Hz
Linewidth increase upon PIP2 binding (βarr1; F277C site): < 10%
Linewidth (βarr1; F277 site, PIP2 1.5-fold, basal 68): 68 Hz
Linewidth (βarr1; H198 site, PIP2 1.5-fold, basal 107): 115 Hz
S2 population (βarr1; H295C site, PIP2 alone, 1.5-fold): ~ 68%
S2 population (βarr1; H295C site, PIP2 co-added with GRK2/6-phosphorylated β2AR peptides): ~ 55%
Gate loop conformational change (S2 state) (βarr1; H295C site, V2Rpp 1.2-fold, β2AR peptides 3-fold, PIP2 1.5-fold, nanodiscs twofold): dramatic, albeit incomplete transition to the S2 state
Linewidth (βarr1; H295 site, ligand-bound state (V2Rpp 1.2-fold, PIP2 1.5-fold), basal 230): 362 Hz
Linewidth (βarr1; L68 site, ligand-bound state (V2Rpp 1.2-fold, PIP2 1.5-fold), basal 89): 101 Hz
Linewidth (βarr1; L71 site, ligand-bound state (V2Rpp 1.2-fold, PIP2 1.5-fold), basal 62): 73 Hz
Linewidth (βarr1; L100 site, ligand-bound state (V2Rpp 1.2-fold, PIP2 1.5-fold), basal 247): 242 Hz
Linewidth (βarr1; L191 site, PIP2 1.5-fold, basal 58): 75 Hz
Linewidth (βarr1; L293 site, ligand-bound state (V2Rpp 1.2-fold, PIP2 1.5-fold), basal 113): 141 Hz
Linewidth (βarr1; L334 site, ligand-bound state (V2Rpp 1.2-fold, PIP2 1.5-fold), basal 50): 87 Hz
Linewidth (βarr1; N375 site, ligand-bound state (V2Rpp 1.2-fold, PIP2 1.5-fold), basal 46): 48 Hz
Linewidth (βarr1; T6 site, ligand-bound state (V2Rpp 1.2-fold, PIP2 1.5-fold), basal 71): 70 Hz
Linewidth (βarr1; T183 site, ligand-bound state (V2Rpp 1.2-fold, PIP2 1.5-fold), basal 67): 89 Hz
New peak (βarr1; Y63C site, PIP2 1.5-fold): appearance of a new peak S3
Spectral changes in the central crest (βarr1; Y63C, L68C, L71C, T136C, F244C, V2Rpp 1.2-fold, β2AR peptides 3-fold, PIP2 1.5-fold): apparently perturbs Y63C and F244C while having little effect on the other sites
Linewidth (βarr1; Y63 site, ligand-bound state (V2Rpp 1.2-fold, PIP2 1.5-fold), basal 118): 206 Hz
Transition to S2 state (βarr1-1-395): promotes the S2 conformation to an extent comparable with full-length βarr1
